This series can be described thus: Pharmacokinetics after intravenous and oral administration in rats. It counts as in vivo. The settings on record: for CL/F: iv dosing, dose 1 mg/kg (0.5 for Ex. 1, 10, 11, 35; 0.48 for Ex. 24). The method, then: The LC/MS/MS system used in the analysis consists of an Agilent 1200 Series vacuum degasser, binary pump, well-plate autosampler, thermostatted column compartment, the Agilent G6430 Triple Quadrupole Mass Spectrometer with an electrosprayionization (ESI) source. Quantitative analysis was carried out using MRM mode. The parameters for MRM transitions are in the Table A.
An Agilent XDB-C18, 2.1×30 mm, 3.5 M column was used for the analysis. 5 L of the samples were injected. Analysis condition: The mobile phase was 0.1% formic acid in water (A) and 0.1% formic acid in methanol (B). The flow rate was 0.4 mL/min. And the gradient of Mobile phase was in the Table B.
Alternatively, an Agilent 6330 series LC/MS/MS spectrometer equipped with G1312A binary pumps, a G1367A autosampler and a G1314C UV detector were used in the analysis. An ESI source was used on the LC/MS/MS spectrometer. The analysis was done in positive ion mode as appropriate and the MRM transition for each analyte was optimized using standard solution. A Capcell MP-C18 100×4.6 mm I.D., […] column (Phenomenex, Torrance, Calif., USA) was used during the analysis. The mobile phase was 5 mM ammonia acetate, 0.1% MeOH in water (A): 5 mM ammonia acetate, 0.1% MeOH in acetonitrile (B) (70:30, v/v). The flow rate was 0.6 mL/min. Column was maintained at ambient temperature. 20 μL of the samples were injected.
The compounds disclosed herein are assessed in pharmacokinetic studies in mice, rats, dogs or monkeys. The compounds are administered as a water solution, 2% HPMC+1% TWEEN®80 in water solution, 5% DMSO+5% solutol in saline, 4% MC suspension or capsule. For the intravenous administration, the animals are generally given at 1 or 2 mg/kg dose. For the oral (p.o.) dosing, mice and rats are generally given 5 or 10 mg/kg dose, and dogs and monkeys are generally given 10 mg/kg dose. The blood samples (0.3 mL) are drawn at 0.25, 0.5, 1.0, 2.0, 3.0, 4.0, 6.0, 8.0, 12 and 24 h time points or 0.083, 0.25, 0.5, 1.0, 2.0, 4.0, 6.0, 8.0 and 24 h time points and centrifuged at 3,000 or 4000 rpm for 2 to 10 min. The plasma solutions are collected, stored at −20° C. or −70° C. until analyzed by LC/MS/MS as described above.

This note sets out measurements from patent US9518046B2 (Calitor Sciences, LLC, priority 2015, dated 2016).

Broadly, the CL/F is clearance divided by bioavailability, as obtained after extravascular dosing. The AUC(0-t) is the area under the concentration-time curve up to a stated or last time point. Read a high AUC(0-t) as more exposure. A word on the half-life: it is how long it takes for the measured level to halve.

The compound `CC[C@H](Nc1ncnc(N)c1-c1ncn(C)n1)c1nc2cccc(Cl)c2c(=O)n1-c1ccccc1` [Ex. 32, (S)-2-(1-((6-amino-5-(1-methyl-H-1,2,4-triazol-3-yl)pyrimidin-4-yl)amino)-propyl)-5-chloro-3-phenylquinazolin-4(3H)-one] displayed a CL/F (Rats) of 43.3 mL/min/kg.
Take `Cc1nc(-c2c(N)ncnc2N[C@@H](C)c2nc3cccc(Cl)c3c(=O)n2C2CC2)no1` [Ex. 33, (S)-2-(1-((6-amino-5-(5-methyl-1,2,4-oxadiazol-3-yl)pyrimidin-4-yl)amino)-ethyl)-5-chloro-3-cyclopropylquinazolin-4(3H)-one]: the CL/F (Rats) was found to be 65.5 mL/min/kg.
Under “Rats”, `CC[C@H](Nc1ncnc(N)c1-c1nnc(C)o1)c1nc2cccc(Cl)c2c(=O)n1-c1ccccc1C` [Ex. 35, (S)-2-(1-((6-amino-5-(5-methyl-1,3,4-oxadiazol-2-yl)pyrimidin-4-yl)-amino)propyl)-5-chloro-3-(o-tolyl)quinazolin-4(3H)-one] showed a CL/F of 53 mL/min/kg.
Take `CC[C@H](Nc1ncnc(N)c1-c1nc(C)no1)c1nc2cccc(C)c2c(=O)n1-c1ccccc1` [Ex. 37, (S)-2-(1-((6-amino-5-(3-methyl-1,2,4-oxadiazol-5-yl)pyrimidin-4-yl)amino)-propyl)-5-methyl-3-phenylquinazolin-4(3H)-one]: the CL/F (Rats) was 67.5 mL/min/kg. This CL/F and that of the compound before are within 1.5-fold of each other.
On the same count and under the same terms, the result for `CC[C@H](Nc1ncnc(N)c1-c1nnc(C)o1)c1nc2cccc(C)c2c(=O)n1-c1ccccc1` [Ex. 38, (S)-2-(1-((6-amino-5-(5-methyl-1,3,4-oxadiazol-2-yl)pyrimidin-4-yl)amino)-propyl)-5-methyl-3-phenylquinazolin-4(3H)-one] reads 71.3 mL/min/kg.
For `CC[C@H](Nc1ncnc(N)c1-c1nc(C)no1)c1nc2cccc(F)c2c(=O)n1-c1ccccc1` [Ex. 39, (S)-2-(1-((6-amino-5-(3-methyl-1,2,4-oxadiazol-5-yl)pyrimidin-4-yl)amino)-propyl)-5-fluoro-3-phenylquinazolin-4(3H)-one], the CL/F (Rats) is 51.8 mL/min/kg.
For the compound `CC[C@H](Nc1ncnc(N)c1-c1nnc(C)o1)c1nc2cccc(F)c2c(=O)n1-c1ccccc1` [Ex. 40, (S)-2-(1-((6-amino-5-(5-methyl-1,3,4-oxadiazol-2-yl)pyrimidin-4-yl)amino)-propyl)-5-fluoro-3-phenylquinazolin-4(3H)-one], under “Rats”, the CL/F was 57.3 mL/min/kg.
`Cc1noc(-c2c(N)ncnc2N[C@@H](C)c2nc3cccc(Cl)c3c(=O)n2C2CC2)n1` [Ex. 41, (S)-2-(1-((6-amino-5-(3-methyl-1,2,4-oxadiazol-5-yl)pyrimidin-4-yl)amino)-ethyl)-5-chloro-3-cyclopropylquinazolin-4(3H)-one] displayed a CL/F (Rats) of 84.3 mL/min/kg.
In the case of `C[C@H](Nc1ncnc(N)c1-c1nnn(C)n1)c1nc2cccc(Cl)c2c(=O)n1C1CC1` [Ex. 42, (S)-2-(1-((6-amino-5-(2-methyl-2H-tetrazol-5-yl)pyrimidin-4-yl)amino)ethyl)-5-chloro-3-cyclopropylquinazolin-4(3H)-one], for the setting “Rats”, the CL/F was 82 mL/min/kg. This CL/F and that of the compound before are within 1.5-fold of each other.
Consider `CC[C@H](Nc1ncnc(N)c1-c1nnn(C)n1)c1nc2cccc(F)c2c(=O)n1-c1ccccc1` [Ex. 43, (S)-2-(1-((6-amino-5-(2-methyl-2H-tetrazol-5-yl)pyrimidin-4-yl)amino)-propyl)-5-fluoro-3-phenylquinazolin-4(3H)-one], for which the CL/F (Rats) is 36.8 mL/min/kg.
`C[C@H](Nc1ncnc(N)c1-c1ncn(C)n1)c1nc2cccc(Cl)c2c(=O)n1C1CC1` [Ex. 44, (S)-2-(1-((6-amino-5-(1-methyl-1H-1,2,4-triazol-3-yl)pyrimidin-4-yl)amino)-ethyl)-5-chloro-3-cyclopropylquinazolin-4(3H)-one] yielded a CL/F (Rats) of 73.7 mL/min/kg.
For the compound `CC[C@H](Nc1ncnc(N)c1-c1nc(COC)n(C)n1)c1nc2cccc(Cl)c2c(=O)n1C1CC1` [Ex. 46], the CL/F (Rats) was found to be 55.8 mL/min/kg.
Compound `CC[C@H](Nc1ncnc(N)c1-c1ccon1)c1nc2cccc(F)c2c(=O)n1C1CC1` [Ex. 48, (S)-2-(1-((6-amino-5-(isoxazol-3-yl)pyrimidin-4-yl)amino)propyl)-3-cyclopropyl-5-fluoroquinazolin-4(3H)-one] returned a CL/F (Rats) of 67.3 mL/min/kg.
Take `CC[C@@H](Nc1ncnc(N)c1-c1ccon1)c1nc2cccc(Cl)c2c(=O)n1C1CC1` [Ex. 49, (R)-2-(1-((6-amino-5-(isoxazol-3-yl)pyrimidin-4-yl)amino)propyl)-5-chloro-3-cyclopropylquinazolin-4(3H)-one]: where the note is “Rats”, the CL/F turned out to be 85.3 mL/min/kg.
Compound `CC[C@H](Nc1ncnc(N)c1-c1ncn(C)n1)c1nc2cccc(Cl)c2c(=O)n1-c1ccc(F)cc1` [Ex. 50, (S)-2-(1-((6-amino-5-(1-methyl-1H-1,2,4-triazol-3-yl)pyrimidin-4-yl)amino)propyl)-5-chloro-3-(4-fluorophenyl)quinazolin-4(3H)-one] had a CL/F (Rats) of 86.7 mL/min/kg.
For the setting “Rats”, `CC[C@H](Nc1ncnc(N)c1-c1ccn(C)n1)c1nc2cccc(Cl)c2c(=O)n1C1CC1` [Ex. 51, (S)-2-(1-((6-amino-5-(1-methyl-1H-pyrazol-3-yl)pyrimidin-4-yl)amino)propyl)-5-chloro-3-cyclopropylquinazolin-4(3H)-one] gave a CL/F of 27.3 mL/min/kg.
`CC[C@H](Nc1ncnc(N)c1-c1nc(C)co1)c1nc2cccc(Cl)c2c(=O)n1C1CC1` [Ex. 52, (S)-2-(1-((6-amino-5-(4-methyloxazol-2-yl)pyrimidin-4-yl)amino)propyl)-5-chloro-3-cyclopropylquinazolin-4(3H)-one] registered a CL/F (Rats) of 85.7 mL/min/kg.
On the same count and under the same terms, to `CC[C@H](Nc1ncnc(N)c1-c1ncn(C)n1)c1nc2cccc(Cl)c2c(=O)n1C1CC1` [Ex. 53, (S)-2-(1-((6-amino-5-(1-methyl-1H-1,2,4-triazol-3-yl)pyrimidin-4-yl)amino)-propyl)-5-chloro-3-cyclopropylquinazolin-4(3H)-one] belongs 38.2 mL/min/kg.
For the setting “Rats”, `CCc1noc(-c2c(N)ncnc2N[C@@H](CC)c2nc3cccc(Cl)c3c(=O)n2C2CC2)n1` [Ex. 56, (S)-2-(1-((6-amino-5-(3-ethyl-1,2,4-oxadiazol-5-yl)pyrimidin-4-yl)amino)-propyl)-5-chloro-3-cyclopropylquinazolin-4(3H)-one] registered a CL/F of 74.7 mL/min/kg.
In the case of `CC(C)c1noc(-c2c(N)ncnc2N[C@@H](C)c2nc3cccc(Cl)c3c(=O)n2C2CC2)n1` [Ex. 57, (S)-2-(1-((6-amino-5-(3-isopropyl-1,2,4-oxadiazol-5-yl)pyrimidin-4-yl)amino)-ethyl)-5-chloro-3-cyclopropylquinazolin-4(3H)-one], the CL/F (Rats) is 83 mL/min/kg.
On the same count and under the same terms, the result for `CC[C@H](Nc1ncnc(N)c1-c1nc(C(N)=O)n(C)n1)c1nc2cccc(Cl)c2c(=O)n1C1CC1` [Ex. 58, (S)-3-(4-amino-6-((1-(5-chloro-3-cyclopropyl-4-oxo-3,4-dihydroquinazolin-2-yl)propyl)amino)pyrimidin-5-yl)-1-methyl-1H-1,2,4-triazole-5-carboxamide] reads 26.2 mL/min/kg; that for `CC(C)c1nc(-c2c(N)ncnc2N[C@@H](C)c2nc3cccc(Cl)c3c(=O)n2C2CC2)no1` [Ex. 59, (S)-2-(1-((6-amino-5-(5-isopropyl-1,2,4-oxadiazol-3-yl)pyrimidin-4-yl)amino)ethyl)-5-chloro-3-cyclopropylquinazolin-4(3H)-one], 73.7 mL/min/kg.
Consider `CCc1nc(-c2c(N)ncnc2N[C@@H](C)c2nc3cccc(Cl)c3c(=O)n2C2CC2)no1` [Ex. 61, (S)-2-(1-((6-amino-5-(5-ethyl-1,2,4-oxadiazol-3-yl)pyrimidin-4-yl)amino)ethyl)-5-chloro-3-cyclopropylquinazolin-4(3H)-one], for which the CL/F (Rats) came out at 97.5 mL/min/kg.
On the same count and under the same terms, the result for `CC[C@H](Nc1ncnc(N)c1-c1nc(C)no1)c1nc2cccc(Cl)c2c(=O)n1[C@@H]1C[C@@H]1F` [Ex. 62] reads 71.8 mL/min/kg.
In the case of `CC[C@H](Nc1ncnc(N)c1-c1nnc(C)o1)c1nc2cccc(-c3cnn(C)c3)c2c(=O)n1-c1ccccc1` [Ex. 73, (S)-2-(1-((6-amino-5-(5-methyl-1,3,4-oxadiazol-2-yl)pyrimidin-4-yl)amino)propyl)-5-(1-methyl-1H-pyrazol-4-yl)-3-phenylquinazolin-4(3H)-one], the CL/F (Rats) turned out to be 20.7 mL/min/kg. For the setting “rat, plasma, iv, 1 mg/kg”, this compound had an AUC(0-t) of 807 ng·h/mL and a half-life of 51 min. In addition, the Vd (rat, plasma, iv, 1 mg/kg, read-out: Vss) came out at 1.44 L/kg. Moreover, the bioavailability (rat, plasma, Rats, oral (p.o.) generally 5 or 10 mg/kg versus iv dosing) amounted to 104%.
